This passage reports TGI and GI50 results from PubChem BioAssay (NCI).

Several values for one entry are separate records, joined by “and”; a condition that tells them apart may be missing. Equal values may be shown once.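 Results reflect a 48-hour exposure of cells in 96-well plates to compound at five concentrations. Abbreviation: GI50, concentration required for 50% inhibition of growth. TGI marks complete inhibition of growth.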

Common to all, as to assay: NCI tumour cell line growth inhibition, 48 h
In assay [1] the test system is MDA-MB-435.
Assay [2] has as its system SW-620 colon.
Assay [3] concerns K-562 leukemia.
The test system of assay [4] is HOP-62 NSCLC.
Assay [5] concerns U251 CNS.
Assay [6] concerns UACC-257 melanoma.
The subject of assay [7] is HL-60(TB) leukemia.
Assay [8] deals with NCI/ADR-RES ovarian.
In assay [9] the test system is NCI-H23 lung.
The test system of assay [10] is 786-0 renal.

As for `O=C(O)c1ccc(S(=O)(=O)N=Nc2c(O)[nH]c3ccccc23)cc1`, the TGI in assay [1], in assay [2], in [3], in [4], in assay [5] and in [6] was greater than 100 µM each time. Besides, the TGI in assay [7], in assay [8], in [9] and in [10] was greater than 100 µM throughout.

For the compound `COC(=O)c1c2c(c(C)[n+]([O-])c1C)C(=O)C(NCc1cccc(OC)c1)=CC2=O`, the GI50 is 1.67 µM in assay [1]; 2.65 µM in assay [2]; 2.98 µM in assay [3]; 3.07 µM in assay [4]; 2.65 µM in assay [5]; 1.55 µM in [6]. Besides, the GI50 in [7] is 1.78 µM; in assay [8], 2.36 µM; in assay [9] it was 1.84 µM; in assay [10] it was 3.6 µM. For the same compound, the TGI is 3.05 µM in assay [1]; 8.96 µM in assay [2]; greater than 100 µM in [3]; 25.3 µM in assay [4]; 10.6 µM in [5]; 3.27 µM in [6]. In addition, the TGI stood at 5.39 µM in [7], 6.74 µM in assay [8], 4.41 µM in [9] and 27.1 µM in assay [10].

In the case of `COC(=O)[C@@H](Cc1c[nH]c2ccccc12)NC(=O)/C=C/c1ccccc1`, the GI50 in [1] is 0.782 µM; in assay [2], 4.07 µM; in [3], 2.74 µM; in [4], 3.62 µM; in assay [5] it was 3.16 µM; in assay [6], 9.03 µM. Further, the GI50 in assay [7] was 2.33 µM; in assay [8] it was 2.53 µM; in assay [9] it was 4.32 µM; in assay [10] it was 3.96 µM. Besides, the TGI is 3.91 µM in assay [1]; greater than 100 µM in assay [2]; greater than 100 µM in assay [3]; greater than 100 µM in assay [4]; 41.6 µM in assay [5]; greater than 100 µM in [6]. Moreover, the TGI was 5.71 µM in assay [7], greater than 100 µM in assay [8], greater than 100 µM in assay [9] and greater than 100 µM in assay [10].

As for `COc1ccccc1CNC(=O)C1c2ccccc2C(=O)N(CC(C)C)C1c1cccs1` (configuration not stated), the GI50 in assay [1] is 16.8 µM; in assay [2], 26.4 µM; in assay [3], 20.3 µM; in assay [4], 40.7 µM; in [5], 23.9 µM; in [7], 20.5 µM. In addition, the values for the GI50 in assay [8], in [9] and in assay [10] were 20.6 µM, 25.8 µM and 20.3 µM, respectively. The TGI in assay [1] is 39.3 µM; in assay [2], greater than 100 µM; in assay [3] it was greater than 100 µM; in assay [4], greater than 100 µM; in assay [5], greater than 100 µM; in assay [7], 60.9 µM. The figures for the TGI in [8], in assay [9] and in assay [10] were greater than 100 µM, greater than 100 µM and 51.2 µM, respectively.

`Cc1c2ncccc2nc2[nH]c3ccc(OCCN(C)C)cc3c12`: the GI50 is 3.12 µM in assay [1]; 0.94 µM in assay [2]; 0.802 µM in assay [3]; 1.73 µM in [4]; 2.68 µM in assay [5]; 10.4 µM in [6]. Also, the GI50 in assay [7] is 3.53 µM; in assay [8], 1.1 µM; in [9], 2.54 µM; in assay [10], 2.81 µM. Besides, the TGI is 15.7 µM in assay [1]; 13.7 µM in assay [2]; 14.6 µM in [3]; 13.7 µM in assay [4]; 17.3 µM in assay [5]; 28.5 µM in [6]. The TGI in assay [7] amounted to 16.5 µM; in assay [8] it was 17.4 µM; in assay [9], 21 µM; in [10], 16.1 µM.

In the case of `CCCCCCCCCCCCOC1C(C(COC2OC(C(O)CN3CCCCC3)C3OC(C)(C)OC23)NC(=O)Nc2ccccc2)OC2OC(C)(C)OC21` (configuration not stated), the GI50 in assay [1] was 7.02 µM; in assay [2], 4.11 µM; in assay [3] it was 2.06 µM; in assay [4], 16.1 µM; in assay [5], 9.46 µM; in assay [6], 19.3 µM. Besides, the GI50 in assay [7] is 3.96 µM; in assay [8] it was 15.3 µM; in [9], 17.9 µM; in [10], 14.1 µM. The TGI was 20.8 µM in assay [1]; 14.7 µM in assay [2]; 5.65 µM in assay [3]; 32.9 µM in [4]; 27.2 µM in assay [5]; 38 µM in assay [6]. Moreover, the TGI in assay [7] came to 11.3 µM; in assay [8], 33.3 µM; in [9], 37.1 µM; in assay [10], 30.5 µM.

As to `CC1CCC2C(C)C3C(CC4C5CC=C6CC(OC7OC(CO)C(O)C(OC8OC(CO)C(O)C(O)C8O)C7OC7OC(C)C(O)C(O)C7O)CCC6(C)C5CCC43C)N2C1` (configuration not stated), the GI50 in [1], in assay [2], in assay [3], in [4], in [5] and in assay [6] was greater than 2.5 µg/mL each time. Further, the GI50 in assay [8], in assay [9] and in assay [10] was greater than 2.5 µg/mL each time. Further, the TGI in assay [1] was 21 µM and > 2.5 µg/mL; in assay [2] it was 31.6 µM and > 2.5 µg/mL; in assay [3], 54.4 µM and > 2.5 µg/mL; in assay [4], 32.2 µM and > 2.5 µg/mL; in assay [5], 31.1 µM and > 2.5 µg/mL; in assay [6], 33.2 µM and > 2.5 µg/mL. In addition, the TGI in [7] is 25.4 µM; in assay [8], 34.8 µM and > 2.5 µg/mL; in assay [9], 29.8 µM and > 2.5 µg/mL; in assay [10], 20.4 µM and > 2.5 µg/mL.

As for `CC12CCc3ccccc3C1=Nc1ccccc12` (configuration not stated), the TGI is 82.6 µM in assay [1]; greater than 100 µM in assay [2]; greater than 100 µM in assay [3]; greater than 100 µM in assay [4]; greater than 100 µM in assay [5]; greater than 100 µM in assay [6]. Further, the TGI in assay [7] is 76.6 µM; in assay [8], 64.6 µM; in assay [9] it was greater than 100 µM; in [10], greater than 100 µM.
